Consider 1 substance from patent US20250092353A1, “COMMENSAL FUNGUS AND USES THEREOF” (YEDA RESEARCH AND DEVELOPMENT CO. LTD., priority 2022, published 2025).

One assay deals with Th17 cells. Description: RORγt+ Th17 cells in mesenteric and peripheral lymph nodes of colonized mice. The format is in vivo. Conditions: 5 weeks colonization. The source says:
FIGS. 4A-4F include graphs showing humoral and cellular immune responses to C. albicans and Kazachstania sp. (4A) Flow cytometric analysis of myeloid blood cell compartment of mice 4 weeks colonized with C. albicans or K. weizmannii. Neutrophils, classical and non-classical monocytes are defined as Ly6G+CD 115−, Ly6C+CD 115+, and […], respectively. N=8-21 mice, pooled from 3 independent experiments. Gating strategy, left, results, right. (4B) Flow cytometric analysis of humoral anti-fungal reactivity. Gating strategy for the determination of serum immunoglobulin binding to cultured C. albicans or K. weizmannii. (4C) Anti-C. albicans and K. weizmannii IgA and IgG serum reactivity of single-colonized animals, measured as shown in (4B). Note that most but not all animals harbor cross-reactive sera. (4D) Representative gating strategy of RORγt+ T cells (left); percentage of RORγt+ cells among TCRβ CD4+ T cells 5 weeks upon C. albicans or K. weizmannii colonization, n=3-5 mice per group, 3 independent experiments (right). […] EC damage was assessed using the LDH assay as described in (Allert et al., 2018). […]
Methods adhered to published guidelines (Cossarizza et al., 2019). Flow cytometry samples were recorded on BD LSR Fortessa 4 lasers or Cytek Aurora followed by data analysis using the FlowJo software (Treestar).

Assay [1] is described as follows: Biolog Phenotype MicroArrays for chemical sensitivity (PM21-PM25). The note with it: compared to C. albicans; normalized AUC of growth. The format is cell-based. As for the experimental part:
FIGS. 2A-2F include micrographs, graphs, a plot, and a curve showing in vitro culture characteristics of K. weizmannii. (2A) Representative images of C. albicans and K. weizmannii in liquid media in presence of filament-inducing conditions, n=3 independent experiments. (2B) A graph showing largest differences in growth between K. weizmannii and C. albicans with different carbon sources, based on a z-score > or <2. Differences were calculated using the normalized area under the curve (AUC) of K. weizmannii and C. albicans. Normalization of the AUC are based on the growth of both species with glucose. Size of data points corresponds to the normalized AUC of K. weizmannii with the corresponding carbon source. All measurements were done using the Biolog Phenotype MicroArrays in biological triplicates. […] The data points are color-coded according to the different types of carbon sources. (2C) A graph showing the largest differences in growth between K. weizmannii and C. albicans with different nitrogen sources, based on a z-score greater than or less than 2. Differences were calculated using AUC of K. weizmannii and C. albicans and normalized based on the growth of both species with glutamine. […] GFP expressing C. albicans was detected by flowcytometry to discriminate between fungi, n=2 independent experiments.

Regarding Kazachstania weizmannii [K. weizmannii], the Th17 cell expansion entry in the assay on Th17 cells was “no Th17 cell expansion was observed”. Also, in assay [1], the “resistance to chemical inhibitors, azoles” value is “relative resistance to propriconazole and fucinazole”; the “sensitivity to chemical inhibitors, chlorides and bromides” value is “more sensitive to chlorides and bromides”.
